The values below come from patent US11446287B2, “Compounds and methods for EP300 or CBP modulation and indications therefor” (Opna Immuno-Oncology SA, priority 2019, dated 2022).

This assay has as its target T1, Recombinant human BRD4 containing dual bromodomains (BRD4-BD12 (1-477)) (Homo sapiens, UniProt O60885).
T1 construct: Recombinant human BRD4 containing dual bromodomains (BRD4-BD12 (1-477)); made in house; host or cells: E. coli BL21-CodonPlus (DE3), modified pET vector
The assay is described as follows: BRD4 Alphascreen binding assay. The method in brief: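 AlphaScreen proximity between Ni-chelate-bound BRD4-BD12 (1-477) and streptavidin-captured H4 K5/K8/K12/K16-acetyl peptide measured after 1 h room-temperature compound incubation and 30 min with 7.5 μg/ml beads. Buffer: 50 mM HEPES pH 7.5, 50 mM NaCl, 0.01% BSA, 0.01% Triton X-100; data plate-normalized and four-parameter fit for IC50.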
Consider `Cc1noc(C)c1-c1cnc2c(c1)c(-c1ccc(C(=O)O)cc1Cl)cn2C(c1ccccn1)C1CCCC1` (stereo not shown) [P-0027, 3-chloro-4-(1-(cyclopentyl(pyridin-2-yl)methyl)-5-(3,5-dimethylisoxazol-4-yl)-1H-pyrrolo[2,3-b]pyridin-3-yl)benzoic acid], for which the IC50 fell in the range of 1 to 8 µM.
To `Cc1cc(-c2cn(C(c3ccccn3)C3CCCC3)c3ncc(-c4c(C)noc4C)cc23)ccc1C(=O)O` (stereo not shown) [P-0028, 4-(1-(cyclopentyl(pyridin-2-yl)methyl)-5-(3,5-dimethylisoxazol-4-yl)-1H-pyrrolo[2,3-b]pyridin-3-yl)-2-methylbenzoic acid] belongs 1 to 8 µM; to `Cc1noc(C)c1-c1cnc2c(c1)c(-c1ccc(C(=O)O)c(C(F)(F)F)c1)cn2C(c1ccccn1)C1CCCC1` (stereo not shown) [P-0029, 4-(1-(cyclopentyl(pyridin-2-yl)methyl)-5-(3,5-dimethylisoxazol-4-yl)-1H-pyrrolo[2,3-b]pyridin-3-yl)-2-(trifluoromethyl)benzoic acid], 1 to 8 µM; to `Cc1noc(C)c1-c1cnc2c(c1)c(-c1ccc(C(=O)O)c(O)c1)cn2C(c1ccccn1)C1CCCC1` (stereo not shown) [P-0030, 4-(1-(cyclopentyl(pyridin-2-yl)methyl)-5-(3,5-dimethylisoxazol-4-yl)-1H-pyrrolo[2,3-b]pyridin-3-yl)-2-hydroxybenzoic acid], 8 to 1000 µM.
The same measure for `Cc1noc(C)c1-c1cnc2c(c1)c(-c1ccc(CC(=O)O)cc1)cn2C(c1ccccn1)C1CCCC1` (stereo not shown) [P-0031, 2-(4-(1-(cyclopentyl(pyridin-2-yl)methyl)-5-(3,5-dimethylisoxazol-4-yl)-1H-pyrrolo[2,3-b]pyridin-3-yl)phenyl)acetic acid]: 1 to 8 µM; for `Cc1noc(C)c1-c1cnc2c(c1)c(-c1ccc(C(C)(C)C(=O)O)cc1)cn2C(c1ccccn1)C1CCCC1` (stereo not shown) [P-0032, 2-(4-(1-(cyclopentyl(pyridin-2-yl)methyl)-5-(3,5-dimethylisoxazol-4-yl)-1H-pyrrolo[2,3-b]pyridin-3-yl)phenyl)-2-methylpropanoic acid]: 1 to 8 µM.
In the case of `Cc1noc(C)c1-c1cnc2c(c1)c(-c1ccc(C3(C(=O)O)CC3)cc1)cn2C(c1ccccn1)C1CCCC1` (stereo not shown) [P-0033, 1-(4-(1-(cyclopentyl(pyridin-2-yl)methyl)-5-(3,5-dimethylisoxazol-4-yl)-1H-pyrrolo[2,3-b]pyridin-3-yl)phenyl)cyclopropane-1-carboxylic acid], the IC50 fell in the range of 1 to 8 µM.
The same measure for `Cc1noc(C)c1-c1cnc2c(c1)c(-c1ccc(C(F)(F)C(=O)O)cc1)cn2C(c1ccccn1)C1CCCC1` (stereo not shown) [P-0034, 2-(4-(1-(cyclopentyl(pyridin-2-yl)methyl)-5-(3,5-dimethylisoxazol-4-yl)-1H-pyrrolo[2,3-b]pyridin-3-yl)phenyl)-2,2-difluoroacetic acid]: 1 to 8 µM; for `COc1ncccc1-n1cc(-c2ccc(C(=O)O)cc2OC(F)(F)F)c2cc(-c3c(C)noc3C)cnc21` [P-0316, 4-(5-(3,5-dimethylisoxazol-4-yl)-1-(2-methoxypyridin-3-yl)-1H-pyrrolo[2,3-b]pyridin-3-yl)-3-(trifluoromethoxy)benzoic acid]: 1 to 8 µM.
Consider `Cc1ncccc1-n1cc(-c2ccc(C(=O)O)cc2OC(F)(F)F)c2cc(-c3c(C)noc3C)cnc21` [P-0317, 4-(5-(3,5-dimethylisoxazol-4-yl)-1-(2-methylpyridin-3-yl)-1H-pyrrolo[2,3-b]pyridin-3-yl)-3-(trifluoromethoxy)benzoic acid], for which the IC50 was 8 to 1000 µM.
Take `Cc1noc(C)c1-c1cnc2c(c1)c(-c1ccc(C(=O)O)cc1OC(F)(F)F)cn2-c1cnn(C)c1` [P-0318, 4-(5-(3,5-dimethylisoxazol-4-yl)-1-(1-methyl-1H-pyrazol-4-yl)-1H-pyrrolo[2,3-b]pyridin-3-yl)-3-(trifluoromethoxy)benzoic acid]: the IC50 was in the range of 0.0001 to 1 µM.
To `Cc1noc(C)c1-c1cnc2c(c1)c(-c1ccc(C(=O)O)cc1OC(F)(F)F)cn2-c1cncnc1` [P-0319, 4-(5-(3,5-dimethylisoxazol-4-yl)-1-(pyrimidin-5-yl)-1H-pyrrolo[2,3-b]pyridin-3-yl)-3-(trifluoromethoxy)benzoic acid] belongs 1 to 8 µM; to `Cc1noc(C)c1-c1cnc2c(c1)c(-c1ccc(C(=O)O)cc1OC(F)(F)F)cn2-c1cnc(N)nc1` [P-0320, 4-(1-(2-aminopyrimidin-5-yl)-5-(3,5-dimethylisoxazol-4-yl)-1H-pyrrolo[2,3-b]pyridin-3-yl)-3-(trifluoromethoxy)benzoic acid], 1 to 8 µM; to `Cc1noc(C)c1-c1cnc2c(c1)c(-c1ccc(C(=O)O)cc1OC(F)(F)F)cn2-c1cnc(N(C)C)nc1` [P-0321], 1 to 8 µM.
Regarding `Cc1noc(C)c1-c1cnc2c(c1)c(-c1ccc(C(=O)O)cc1OC(F)(F)F)cn2-c1ccc(C(=O)O)cc1` [P-0322, 4-(1-(4-carboxyphenyl)-5-(3,5-dimethylisoxazol-4-yl)-1H-pyrrolo[2,3-b]pyridin-3-yl)-3-(trifluoromethoxy)benzoic acid], the IC50 lay in the range of 1 to 8 µM.
Turning to `Cc1noc(C)c1-c1cnc2c(c1)c(-c1ccc(C(=O)O)cc1OC(F)(F)F)cn2-c1ccc(C(N)=O)cc1` [P-0323, 4-(1-(4-carbamoylphenyl)-5-(3,5-dimethylisoxazol-4-yl)-1H-pyrrolo[2,3-b]pyridin-3-yl)-3-(trifluoromethoxy)benzoic acid], the IC50 lay in the range of 1 to 8 µM.
Turning to `COc1cc(C(=O)O)ncc1-c1cn(-c2ccncc2Cl)c2ncc(-c3c(C)noc3C)cc12` [P-0324, 5-(1-(3-chloropyridin-4-yl)-5-(3,5-dimethylisoxazol-4-yl)-1H-pyrrolo[2,3-b]pyridin-3-yl)-4-methoxypicolinic acid], the IC50 is 1 to 8 µM.
To `Cc1noc(C)c1-c1cnc2c(c1)c(-c1ccc(C(=O)O)cc1OCC(F)F)cn2[C@H]1CCOC1` [P-0325, (S)-3-(2,2-difluoroethoxy)-4-(5-(3,5-dimethylisoxazol-4-yl)-1-(tetrahydrofuran-3-yl)-1H-pyrrolo[2,3-b]pyridin-3-yl)benzoic acid] belongs 8 to 1000 µM; to `CCn1cc(-n2cc(-c3ccc(C(=O)O)cc3OCC(F)F)c3cc(-c4c(C)noc4C)cnc32)c(C)n1` [P-0326, 3-(2,2-difluoroethoxy)-4-(5-(3,5-dimethylisoxazol-4-yl)-1-(1-ethyl-3-methyl-1H-pyrazol-4-yl)-1H-pyrrolo[2,3-b]pyridin-3-yl)benzoic acid], 8 to 1000 µM; to `Cc1noc(C)c1-c1cnc2c(c1)c(-c1c(F)cc(C(=O)O)cc1OCC(F)F)cn2-c1ccccc1` [P-0327, 3-(2,2-difluoroethoxy)-4-(5-(3,5-dimethylisoxazol-4-yl)-1-phenyl-1H-pyrrolo[2,3-b]pyridin-3-yl)-5-fluorobenzoic acid], 1 to 8 µM.
With `Cc1noc(C)c1-c1cnc2c(c1)c(-c1ccc(C(=O)O)cc1OCC(F)F)cn2-c1cnc(N2CCC2)nc1` [P-0328, 4-(1-(2-(azetidin-1-yl)pyrimidin-5-yl)-5-(3,5-dimethylisoxazol-4-yl)-1H-pyrrolo[2,3-b]pyridin-3-yl)-3-(2,2-difluoroethoxy)benzoic acid], the IC50 lay in the range of 8 to 1000 µM.
The same measure for `CCOc1cc(C(=O)O)nc(OCC)c1-c1cn(-c2ccc(F)cc2F)c2ncc(-c3c(C)noc3C)cc12` [P-0329, 5-(1-(2,4-difluorophenyl)-5-(3,5-dimethylisoxazol-4-yl)-1H-pyrrolo[2,3-b]pyridin-3-yl)-4,6-diethoxypicolinic acid]: 1 to 8 µM.
